ChEMBL document CHEMBL1909046, “DrugMatrix in vitro pharmacology data”

Assays:
[1] = biological target: Cytochrome P450 2D6 (Homo sapiens, UniProt P10635); conditions: bti-tn-5b1-4; further: in other assays of this panel Not Active means under 50% inhibition at 10 µM
[2] = DRUGMATRIX: ATPase, Na+/K+ enzyme inhibition (substrate: ATP); type: tissue-based, Sus scrofa, Heart; conditions: Not Active = under 50% inhibition at 10 µM
[3] = biological target: T1, Nitric oxide synthase, inducible (Mus musculus, UniProt P29477); set-up: species or system Escherichia coli;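 further: inhibition of iNOS enzyme activity measured with L-arginine as substrate; in other assays of this panel Not Active means under 50% inhibition at 10 µM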
T1 sequence (P29477 whole entry): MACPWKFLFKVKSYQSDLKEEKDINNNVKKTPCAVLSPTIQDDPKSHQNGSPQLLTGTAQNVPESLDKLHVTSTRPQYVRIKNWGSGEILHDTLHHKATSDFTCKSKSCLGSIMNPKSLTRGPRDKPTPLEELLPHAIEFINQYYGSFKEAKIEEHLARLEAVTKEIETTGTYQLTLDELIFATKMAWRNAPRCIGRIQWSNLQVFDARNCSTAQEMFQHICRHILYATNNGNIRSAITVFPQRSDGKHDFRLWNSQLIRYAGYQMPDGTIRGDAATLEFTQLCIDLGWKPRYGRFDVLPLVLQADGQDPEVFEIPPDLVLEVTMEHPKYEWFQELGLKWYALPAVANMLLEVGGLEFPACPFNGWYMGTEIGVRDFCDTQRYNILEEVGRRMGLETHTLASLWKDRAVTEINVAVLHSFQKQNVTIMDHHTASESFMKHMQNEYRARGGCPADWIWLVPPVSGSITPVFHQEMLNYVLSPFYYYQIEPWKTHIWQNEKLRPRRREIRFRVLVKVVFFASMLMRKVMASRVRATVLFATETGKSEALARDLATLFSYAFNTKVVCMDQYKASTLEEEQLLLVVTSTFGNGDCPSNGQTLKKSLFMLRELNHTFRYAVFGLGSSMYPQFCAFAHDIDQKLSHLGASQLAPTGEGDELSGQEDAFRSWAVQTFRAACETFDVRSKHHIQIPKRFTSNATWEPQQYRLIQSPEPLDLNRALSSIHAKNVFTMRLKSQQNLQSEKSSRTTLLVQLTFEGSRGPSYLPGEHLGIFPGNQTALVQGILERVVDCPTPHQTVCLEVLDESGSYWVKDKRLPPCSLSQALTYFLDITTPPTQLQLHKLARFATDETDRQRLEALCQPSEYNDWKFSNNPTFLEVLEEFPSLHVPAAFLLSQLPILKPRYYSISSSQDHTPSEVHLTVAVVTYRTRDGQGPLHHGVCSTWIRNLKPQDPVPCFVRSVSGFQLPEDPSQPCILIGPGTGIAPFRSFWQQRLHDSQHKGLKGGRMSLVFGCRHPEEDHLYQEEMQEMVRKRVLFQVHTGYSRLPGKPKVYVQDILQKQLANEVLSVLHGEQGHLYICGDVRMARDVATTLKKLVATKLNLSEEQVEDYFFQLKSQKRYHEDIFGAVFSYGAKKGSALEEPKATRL

[4] = biological target: Sodium-dependent noradrenaline transporter (Homo sapiens, UniProt P23975); experiment: DRUGMATRIX: Norepinephrine Transporter radioligand binding (ligand: [125I] RTI-55); type: cell membranes, MDCK, Membrane; conditions: mdck; Not Active = under 50% inhibition at 10 µM
[5] = biological target: T2, Adenosine receptor A3 (Homo sapiens, UniProt P0DMS8); type: cell membranes, CHO-K1, Membrane; conditions: cho-k1;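 further: radioligand binding assay with AB-MECA serving as the labeled ligand; in other assays of this panel Not Active means under 50% inhibition at 10 µM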
T2 sequence (P0DMS8 whole entry): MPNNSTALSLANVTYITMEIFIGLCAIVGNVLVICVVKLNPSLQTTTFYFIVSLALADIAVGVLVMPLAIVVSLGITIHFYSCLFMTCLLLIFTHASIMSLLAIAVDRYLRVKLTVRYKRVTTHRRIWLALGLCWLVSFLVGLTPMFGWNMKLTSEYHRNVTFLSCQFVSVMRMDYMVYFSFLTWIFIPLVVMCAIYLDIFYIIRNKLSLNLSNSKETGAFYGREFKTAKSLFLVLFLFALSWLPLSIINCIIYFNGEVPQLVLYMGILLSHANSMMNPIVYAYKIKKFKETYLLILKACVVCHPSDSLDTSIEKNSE

[6] = biological target: Aldo-keto reductase family 1 member B1 (Rattus norvegicus, UniProt P07943); type: tissue-based, Lens of camera-type eye;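 further: inhibition of aldose reductase enzyme activity, measured with DL-glyceraldehyde as the substrate; in other assays of this panel Not Active means under 50% inhibition at 10 µM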

Sequence of Sodium-dependent noradrenaline transporter (P23975 whole entry): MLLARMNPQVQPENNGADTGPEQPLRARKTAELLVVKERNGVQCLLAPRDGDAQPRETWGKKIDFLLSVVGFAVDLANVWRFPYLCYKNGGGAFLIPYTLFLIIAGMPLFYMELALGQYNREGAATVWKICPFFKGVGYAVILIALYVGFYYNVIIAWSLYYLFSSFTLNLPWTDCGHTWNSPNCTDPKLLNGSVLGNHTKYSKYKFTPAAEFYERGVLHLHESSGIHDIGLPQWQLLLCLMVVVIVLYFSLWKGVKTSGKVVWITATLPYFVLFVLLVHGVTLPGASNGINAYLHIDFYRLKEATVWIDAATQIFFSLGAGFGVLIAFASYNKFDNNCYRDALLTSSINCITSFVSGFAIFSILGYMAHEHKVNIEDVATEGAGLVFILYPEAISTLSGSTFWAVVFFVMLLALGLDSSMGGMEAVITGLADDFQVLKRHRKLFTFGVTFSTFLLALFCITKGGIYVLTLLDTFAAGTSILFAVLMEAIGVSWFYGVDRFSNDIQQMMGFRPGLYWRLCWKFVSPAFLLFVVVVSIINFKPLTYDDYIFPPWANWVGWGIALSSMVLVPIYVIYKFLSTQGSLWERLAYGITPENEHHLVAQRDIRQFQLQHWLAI
Sequence of Cytochrome P450 2D6 (P10635 whole entry): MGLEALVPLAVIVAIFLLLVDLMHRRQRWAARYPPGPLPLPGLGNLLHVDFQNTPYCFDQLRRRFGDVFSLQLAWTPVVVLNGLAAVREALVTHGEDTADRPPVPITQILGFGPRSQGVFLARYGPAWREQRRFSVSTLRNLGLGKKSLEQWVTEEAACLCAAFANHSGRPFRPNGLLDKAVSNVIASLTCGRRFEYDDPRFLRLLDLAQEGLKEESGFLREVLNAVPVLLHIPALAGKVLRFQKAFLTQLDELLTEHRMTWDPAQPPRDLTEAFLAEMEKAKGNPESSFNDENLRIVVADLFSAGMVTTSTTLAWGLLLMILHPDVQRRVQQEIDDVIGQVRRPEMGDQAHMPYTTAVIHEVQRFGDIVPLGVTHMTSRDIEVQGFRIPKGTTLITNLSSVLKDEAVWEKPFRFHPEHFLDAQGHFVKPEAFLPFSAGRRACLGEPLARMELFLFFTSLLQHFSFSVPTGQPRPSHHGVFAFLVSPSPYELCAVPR

SMILES	IC50 [1]	Ki [1]	IC50 [2]	Ki [2]	IC50 [3]	IC50 [4]	IC50 [5]	IC50 [6]	IC50 ([2]; read-out: IC50) [nM]
COC(=O)Nc1nc2ccc(C(=O)c3cccs3)cc2[nH]1 [NOCODAZOLE]	Not Active	Not Active	Not Active	Not Active	Not Active	Not Active	Not Active	Not Active	
C#CC1(O)CC[C@H]2[C@@H]3CCC4=CC(=O)CC[C@@H]4[C@H]3CC[C@@]21CC (stereo partly drawn) [NORGESTREL]	Not Active	Not Active	Not Active	Not Active	Not Active	Not Active	Not Active	Not Active	
COC(=O)Nc1nc2ccc([S+]([O-])c3ccccc3)cc2[nH]1 (stereo not drawn) [OXFENDAZOLE]	Not Active	Not Active	Not Active	Not Active	Not Active	Not Active	Not Active	Not Active	
CC(=O)O[C@H]1C(=O)[C@@]2(C)[C@H]([C@H](OC(=O)c3ccccc3)[C@]3(O)C[C@H](OC(=O)[C@H](O)[C@@H](NC(=O)c4ccccc4)c4ccccc4)C(C)=C1C3(C)C)[C@]1(OC(C)=O)CO[C@@H]1C[C@@H]2O [PACLITAXEL]	Not Active	Not Active	Not Active	Not Active	Not Active	Not Active	Not Active	Not Active	
C[n+]1ccc(-c2cc[n+](C)cc2)cc1.[Cl-].[Cl-] [PARAQUAT DICHLORIDE]	Not Active	Not Active	Not Active	Not Active	Not Active	Not Active	Not Active	Not Active	
CCn1cc(C(=O)O)c(=O)c2cnc(N3CCCC3)nc21 [PIROMIDIC ACID]	Not Active	Not Active	Not Active	Not Active	Not Active	Not Active	Not Active	Not Active	
C[n+]1ccccc1/C=N/O.[Cl-] [PRALIDOXIME CHLORIDE]	Not Active	Not Active	Not Active	Not Active	Not Active	Not Active	Not Active	Not Active	
COc1cc2nc(N3CCN(C(=O)c4ccco4)CC3)nc(N)c2cc1OC [PRAZOSIN]	Not Active	Not Active	Not Active	Not Active	Not Active	Not Active	Not Active	Not Active	
C[C@]12C=CC(=O)C=C1CC[C@@H]1[C@@H]2[C@@H](O)C[C@@]2(C)[C@H]1CC[C@]2(O)C(=O)CO [PREDNISOLONE]	Not Active	Not Active	Not Active	Not Active	Not Active	Not Active	Not Active	Not Active	
CC(=O)[C@H]1[C@H](C#N)C[C@H]2[C@@H]3CC=C4C[C@@H](O)CC[C@]4(C)[C@H]3CC[C@@]21C [PREGNENOLONE CARBONITRILE]	Not Active	Not Active	Not Active	Not Active	Not Active	Not Active	Not Active	Not Active	
CCCN(CCC)S(=O)(=O)c1ccc(C(=O)O)cc1 [PROBENECID]	Not Active	Not Active	Not Active	Not Active	Not Active	Not Active	Not Active	Not Active	
CCCOc1ccc(C(=O)OCCN(CC)CC)cc1N [PROPARACAINE]	Not Active	Not Active	Not Active	Not Active	Not Active	Not Active	Not Active	Not Active	
C[C@@H]1O[C@@H](O[C@@H]2C=C3CC[C@@H]4[C@H](CC[C@]5(C)[C@@H](c6ccc(=O)oc6)CC[C@]45O)[C@@]3(C)CC2)[C@H](O)[C@H](O)[C@H]1O [PROSCILLARIDIN]	Not Active	Not Active			Not Active	Not Active	Not Active	Not Active	88
